From PubChem BioAssay (NCI)
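Dose response: 5 concentrations. Exposure: 48 h. Format: 96-well plates. Endpoint: linear interpolation; highest concentration if not reached. Here, GI50 denotes the concentration required for 50% inhibition of growth. TGI: concentration producing complete growth inhibition.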

Columns and labels:
Assay in all cases: NCI tumour cell line growth inhibition, 48 h
COLO 205 colon = test system: COLO 205 colon
SR leukemia = test system: SR leukemia
CCRF-CEM leukemia = test system: CCRF-CEM leukemia
A549 NSCLC = test system: A549 NSCLC
HCC-2998 colon = test system: HCC-2998 colon
KM12 colon = test system: KM12 colon
HOP-62 NSCLC = test system: HOP-62 NSCLC
OVCAR-5 ovarian = test system: OVCAR-5 ovarian
UACC-257 melanoma = test system: UACC-257 melanoma
SK-MEL-2 melanoma = test system: SK-MEL-2 melanoma

SMILES | TGI (COLO 205 colon) [µM] | TGI (SR leukemia) [µM] | TGI (CCRF-CEM leukemia) [µM] | TGI (A549 NSCLC) [µM] | TGI (HCC-2998 colon) [µM] | TGI (KM12 colon) [µM] | TGI (HOP-62 NSCLC) [µM] | TGI (OVCAR-5 ovarian) [µM] | TGI (UACC-257 melanoma) [µM] | TGI (SK-MEL-2 melanoma) [µM] | GI50 (COLO 205 colon) [µM] | GI50 (SR leukemia) [µM] | GI50 (A549 NSCLC) [µM] | GI50 (HCC-2998 colon) [µM] | GI50 (KM12 colon) [µM] | GI50 (HOP-62 NSCLC) [µM] | GI50 (SK-MEL-2 melanoma) [µM] | GI50 (OVCAR-5 ovarian) [µM] | GI50 (UACC-257 melanoma) [µM] | GI50 (CCRF-CEM leukemia) [µM]
CC(C)C/C(CC(=O)CCC(=O)Nc1ccccc1[N+](=O)[O-])=N\NC(=O)c1cc2ccccc2cc1O | 69 | > 100 | 59.6 | > 100 | > 100 | > 100 | > 100 | > 100 | > 100 | – | – | – | – | – | – | – | – | – | – | –
N#CC1C(C#N)C2(c3ccccc3)C(c3ccccc3)=NN(c3ccccc3)CC12 (configuration not stated) | – | > 100 | > 100 | > 100 | > 100 | > 100 | – | > 100 | > 100 | > 100 | – | – | – | – | – | – | – | – | – | –
CCCCC(=O)OCC(=O)[C@]1(O)Cc2c(O)c3c(c(O)c2[C@@H](OC2CC(NC(=O)C(F)(F)F)C(O)C(C)O2)C1)C(=O)c1c(OC)cccc1C3=O (some centres not stated) | 3.69 | – | > 73.6 | 3.83 | 3.81 | > 70.8 | 0.988 | 7.49 | 8.08 | 6.01 | – | – | – | – | – | – | – | – | – | –
CC(C)=CC(=O)C1c2cccc(O)c2C(=O)c2c(O)cc(C)cc21 (configuration not stated) | 3.4 | – | > 100 | 4.31 | 5.67 | 3.17 | 7.87 | 5.13 | 8.5 | 3.6 | – | – | – | – | – | – | – | – | – | –
Cc1cc(I)cc(CN(C)CCCCN2CCCCC2)c1O | 24.9 | 17.9 | – | 96.8 | 30.1 | 31.3 | 28.3 | 40.5 | 15.1 | 29.2 | 9.87 | 4.6 | 27.4 | 16 | 13.6 | 14.4 | 13.8 | 14.3 | 4.2 | –
Cc1cc(C)nc(NS(=O)(=O)c2ccc(NC(=O)c3ccc(Cl)c4c(Nc5ccc(S(=O)(=O)Nc6nc(C)cc(C)n6)cc5)c5ccccc5nc34)cc2)n1 | > 100 | – | > 100 | 86.1 | – | > 100 | > 100 | 32.4 | 81.6 | > 100 | – | – | – | – | – | – | – | – | – | –
COc1cc(/C=N/NC(=O)c2ccc(C(F)(F)F)nc2Nc2ccc(Cl)cc2C)ccc1O | 10.4 | – | 3.12 | 15.1 | 8.45 | 7.16 | 19.7 | 15.6 | 13.4 | 11.9 | 3.25 | – | 3.54 | 1.98 | 2.23 | 3.78 | 2.14 | 2.9 | 3.97 | 0.416
O=CC[C@H]1C(=O)C[C@@H]2CCC[C@@H]21 | > 100 | – | > 100 | > 100 | > 100 | > 100 | > 100 | > 100 | > 100 | > 100 | – | – | – | – | – | – | – | – | – | –
N#CCCN(CCC#N)c1ccc(/C=C2\N=C(c3cc([N+](=O)[O-])ccc3Cl)OC2=O)cc1 | – | 56.7 | – | > 100 | 52.6 | 28.2 | 95.7 | > 100 | 44.1 | 38.1 | – | – | – | – | – | – | – | – | – | –
COc1ccc2c3c1C(=O)CCCC3CO2 (configuration not stated) | > 100 | – | > 100 | > 100 | > 100 | > 100 | > 100 | > 100 | > 100 | > 100 | – | – | – | – | – | – | – | – | – | –
CCN(CCO)CC1CCCC2CCCCC21 (configuration not stated) | > 100 | – | – | > 100 | > 100 | > 100 | > 100 | > 100 | > 100 | > 100 | – | – | – | – | – | – | – | – | – | –
O=C(O)c1ccccc1[Se][Se]c1ccccc1C(=O)O | > 100 | – | > 100 | > 100 | > 100 | 89.1 | 73.5 | – | > 100 | > 100 | – | – | – | – | – | – | – | – | – | –
CCCCCCCCCCCCCCCCCC(CCCCCCCCCCCCCCCCC)OP(=O)(O)O | > 100 | > 100 | > 100 | > 100 | > 100 | > 100 | – | > 100 | > 100 | > 100 | – | – | – | – | – | – | – | – | – | –
O=C1C=C(Cl)C(=O)C(c2ccc(Cl)cc2)=C1 | 31 | – | 15.9 | > 100 | 34.2 | > 100 | 44 | 39.6 | 40.7 | 44.3 | – | – | – | – | – | – | – | – | – | –
O=S1(=O)c2ccccc2NC(c2ccc3ccccc3c2)CC1c1ccccc1F (configuration not stated) | > 100 | – | > 100 | > 100 | > 100 | > 100 | > 100 | > 100 | > 100 | > 100 | – | – | – | – | – | – | – | – | – | –
CCCCCN(CCCCC)CCCNc1c2c(nc3ccc(Cl)cc13)CCCC2 | 2.81 | – | – | 10.8 | 8.89 | 10.3 | – | 15 | 4.52 | 3.99 | 1.28 | – | 3.29 | 2.48 | 3.13 | – | 2.05 | 3.36 | 2.19 | –
COc1cc(CNc2cnc3cc(N)cc(N)c3n2)cc(OC)c1 | – | > 100 | 52.3 | > 100 | 25 | 71.8 | 44.1 | 48 | – | > 100 | – | 18.8 | 33 | 11.7 | 22.5 | 14.9 | 66.7 | 17.6 | – | 18.5
O=C1/C(=C/c2ccccc2)CN(C(=O)C(Cl)(Cl)Cl)C/C1=C\c1ccccc1 | 4.69 | 7.1 | 3.86 | 32.4 | – | 3.4 | – | 6.42 | 2.92 | 10.3 | – | – | – | – | – | – | – | – | – | –
COc1cc2c(cc1OC)-c1c3cc(O)ccc3nn[n+]1CC2 | > 100 | – | > 100 | > 100 | > 100 | > 100 | > 100 | – | – | – | – | – | – | – | – | – | – | – | – | –
CCCCOC(=O)C1OC(O[C@H]2CCC3(C)C(CCC4(C)C3CC=C3C5CC(C)(C)CCC5(C(=O)O)CC[C@]34C)C2(C)C)C(OC2OC(CO)C(O)C(O)C2O)C(OC2OC(CO)C(O)C(O)C2O)C1O (some centres not stated) | 52.3 | – | – | > 100 | 38.1 | 93.5 | 35.6 | 56.4 | 62.2 | > 100 | 20.1 | – | 34.1 | 21.8 | 30.8 | 19.4 | 40.9 | 28.8 | 26.2 | –
COC1(OC)CCC2C1C1CCC(OC)(OC)C21 (configuration not stated) | > 50 | – | > 50 | > 50 | > 50 | > 50 | > 50 | > 50 | > 50 | > 50 | – | – | – | – | – | – | – | – | – | –
